# Test results taken from patent publication US8822471B2, “Compounds, pharmaceutical compositions and uses thereof” (Boehringer Ingelheim International GmbH, priority 2011, dated 2014).
# Target: T1, mutant form of the human GPR119 receptor (Homo sapiens, UniProt Q8TDV5, S329A/T327A)
# T1 construct: T327 & S329 changed to alanines; expressed in transfected cells
# T1 sequence (Q8TDV5 2-335 T327A/S329A): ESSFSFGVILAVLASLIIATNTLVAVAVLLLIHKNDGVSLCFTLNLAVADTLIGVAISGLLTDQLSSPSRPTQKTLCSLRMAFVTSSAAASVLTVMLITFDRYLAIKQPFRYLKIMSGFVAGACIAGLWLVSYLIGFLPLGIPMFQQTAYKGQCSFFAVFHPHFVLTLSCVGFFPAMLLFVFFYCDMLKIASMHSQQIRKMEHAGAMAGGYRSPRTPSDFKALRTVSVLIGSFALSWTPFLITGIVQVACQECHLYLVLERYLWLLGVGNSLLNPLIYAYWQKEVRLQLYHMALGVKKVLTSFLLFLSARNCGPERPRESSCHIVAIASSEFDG
# Test: LANCE cAMP-384 assay in HEK293 cells stably expressing a mutant form of the human GPR119 receptor
# Assay type: cell-based
# Details: HEK293 cells stably expressing mutant human GPR119, LANCE cAMP-384 Kit, 20 min at 37° C.
# Method: Quantitative detection of cAMP accumulation from cells expressing human GPR119 receptor is achieved using Perkin Elmer's LANCE cAMP-384 Kit (Cat#AD0264) according to the manufacturer's protocol. Briefly, HEK293 cells stably expressing a mutant form of the human GPR119 receptor as assay tool (Methionine 1 replaced with the amino acid sequence […], and T327 & S329 changed to alanines; SEQ ID No. 1) are grown to 50-70% confluency in cell culture media (DMEM, 10% heat inactivated Fetal Bovine Serum, 50 I.U./mL penicillin, 50 μg/mL streptomycin, 10 mM HEPES, 20 μg/mL G418 Sulfate). On the day of the assay, GPR119 stable HEK293 cells are lifted from the tissue culture plate and 1000 cells/well are incubated along with various concentrations of test compounds for 20 min at 37° C. Detection Buffer (50 mM HEPES, 10 mM calcium chloride, 0.35% Triton X-100, 1 mg/mL BSA) containing cAMP-specific antibody is then added to all wells and allowed to equilibrate in the dark for 10 minutes at room temperature. Upon equilibration, Detection Buffer containing europium-labeled cAMP tracer complex is added to all wells and allowed to react for 1 hour at room temperature. After 1 hour, bound europium-labeled cAMP tracer is measured using a Perkin Elmer Envision plate reader. The quantity of cAMP generated in each well is derived from a standard curve. EC50 is determined using nonlinear regression analysis of the cAMP values over a range of agonist concentration (12 points spanning the range from 30 μM to 100 pM).
row,SMILES,EC50
1,"O=C(c1ccc(-n2cnnn2)c(F)c1)N(C1CC1)C1CCN(c2ncc(Cl)cn2)CC1 [Example 115, N-[1-(5-Chloro-pyrimidin-2-yl)-piperidin-4-yl]-N-cyclopropyl-3-fluoro-4-tetrazol-1-yl-benzamide]",54 nM
2,"Cc1nnnn1-c1ccc(C(=O)N(C2CC2)C2CCN(c3ncc(Cl)cn3)CC2)cc1F [Example 116, N-[1-(5-Chloro-pyrimidin-2-yl)-piperidin-4-yl]-N-cyclopropyl-3-fluoro-4-(5-methyl-tetrazol-1-yl)-benzamide]",294 nM
3,"O=C(c1ccc(-n2cnnn2)cc1)N(C1CC1)C1CCN(c2ncc(C(F)(F)F)cc2F)CC1 [Example 117, N-Cyclopropyl-N-(3′-fluoro-5′-trifluoromethyl-3,4,5,6-tetrahydro-2H-[1,2′]bipyridinyl-4-yl)-4-tetrazol-1-yl-benzamide]",53 nM
4,"Cc1nnnn1-c1ccc(C(=O)N(C2CC2)C2CCN(c3ncc(C(F)(F)F)cc3F)CC2)cc1 [Example 118, N-Cyclopropyl-N-(3′-fluoro-5′-trifluoromethyl-3,4,5,6-tetrahydro-2H-[1,2′]bipyridinyl-4-yl)-4-(5-methyl-tetrazol-1-yl)-benzamide]",101 nM
5,"Cc1nnnn1-c1ccc(C(=O)N(C2CC2)C2CCN(c3ncc(C(F)(F)F)cc3F)CC2)cc1F [Example 119, N-Cyclopropyl-3-fluoro-N-(3′-fluoro-5′-trifluoromethyl-3,4,5,6-tetrahydro-2H-[1,2]bipyridinyl-4-yl)-4-(5-methyl-tetrazol-1-yl)-benzamide]",117 nM
